# How the values were obtained:
# Format in all cases: cell-based
# [1] = target: T1, ETV1 (Homo sapiens, UniProt P50549); experiment: ETV1-dependent reporter assay in HEK293 cells; conditions: 48 hours
# T1 construct: expressed in transfected cells; host or cells: HEK293
# T1 sequence (P50549 1-477): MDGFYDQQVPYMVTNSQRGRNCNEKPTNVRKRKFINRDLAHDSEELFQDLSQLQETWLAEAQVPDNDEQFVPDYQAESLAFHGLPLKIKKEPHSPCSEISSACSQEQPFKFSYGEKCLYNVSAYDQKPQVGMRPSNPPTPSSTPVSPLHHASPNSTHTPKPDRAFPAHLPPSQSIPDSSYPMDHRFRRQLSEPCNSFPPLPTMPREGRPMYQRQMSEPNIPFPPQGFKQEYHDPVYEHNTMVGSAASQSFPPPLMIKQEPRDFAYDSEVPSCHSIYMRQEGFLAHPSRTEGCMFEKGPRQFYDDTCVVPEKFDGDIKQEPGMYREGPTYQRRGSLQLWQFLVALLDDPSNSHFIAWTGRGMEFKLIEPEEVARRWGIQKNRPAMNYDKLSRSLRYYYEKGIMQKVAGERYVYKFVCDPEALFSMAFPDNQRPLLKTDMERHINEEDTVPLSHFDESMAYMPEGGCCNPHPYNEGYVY
# Experimental: (§1) HEK293 cells were transiently transfected with empty vector (for the NT) or ERG-expressing plasmid as well as pRL-TK (internal control) and PUx3-Luc reporter. Cells were then exposed to DMSO vehicle or compounds at designated doses for 48 hours. Experiments were done in triplicate.
# Experiments were done as described above in FIG. 1.1a) except that ERG plasmid was replaced by ETV1 plasmid.
# [2] = target: T2, ERG (Homo sapiens, UniProt P11308); experiment: ERG-dependent reporter assay in HEK293 cells; set-up: expressed in transfected cells; host or cells: HEK293; conditions: PUx3-Luc reporter, 48 hours, designated doses
# T2 sequence (P11308 1-486 isoform P11308-3): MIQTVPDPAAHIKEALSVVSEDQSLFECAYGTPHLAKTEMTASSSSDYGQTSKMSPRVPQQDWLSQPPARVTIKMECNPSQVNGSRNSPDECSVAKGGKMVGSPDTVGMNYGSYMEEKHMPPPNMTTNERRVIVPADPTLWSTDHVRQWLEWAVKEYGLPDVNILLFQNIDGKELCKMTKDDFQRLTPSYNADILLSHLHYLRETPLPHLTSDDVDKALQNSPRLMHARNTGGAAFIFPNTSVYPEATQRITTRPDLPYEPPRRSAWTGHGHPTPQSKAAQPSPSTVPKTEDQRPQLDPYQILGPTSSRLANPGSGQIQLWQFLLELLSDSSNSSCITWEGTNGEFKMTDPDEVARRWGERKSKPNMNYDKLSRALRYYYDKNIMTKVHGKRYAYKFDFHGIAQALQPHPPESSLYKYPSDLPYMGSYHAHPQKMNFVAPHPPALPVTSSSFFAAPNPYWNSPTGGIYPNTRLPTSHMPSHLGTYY
# Experimental: as §1
# [3] = target: T3, human STING (hSTING) (Homo sapiens, UniProt Q86WV6); experiment: hSTING ISRE-luc reporter assay in 293T cells; conditions: 24 hours
# T3 construct: expressed in transfected cells; host or cells: 293T
# Experimental: ISRE-luc (reporter), pRL-TK (internal control) and hSTING-expressing plasmids were transiently transfected into 293T cells. Cells were exposed to DMSO vehicle control or compounds for 24 hours. Experiments were done in triplicate.
# [4] = target: T4, human GATA2 (Homo sapiens, UniProt P23769); experiment: GATA2-dependent reporter assay in IHH cells; conditions: GATA-Luc reporter, 48 h
# T4 construct: expressed in transfected cells; host or cells: IHH
# T4 sequence (P23769 1-480): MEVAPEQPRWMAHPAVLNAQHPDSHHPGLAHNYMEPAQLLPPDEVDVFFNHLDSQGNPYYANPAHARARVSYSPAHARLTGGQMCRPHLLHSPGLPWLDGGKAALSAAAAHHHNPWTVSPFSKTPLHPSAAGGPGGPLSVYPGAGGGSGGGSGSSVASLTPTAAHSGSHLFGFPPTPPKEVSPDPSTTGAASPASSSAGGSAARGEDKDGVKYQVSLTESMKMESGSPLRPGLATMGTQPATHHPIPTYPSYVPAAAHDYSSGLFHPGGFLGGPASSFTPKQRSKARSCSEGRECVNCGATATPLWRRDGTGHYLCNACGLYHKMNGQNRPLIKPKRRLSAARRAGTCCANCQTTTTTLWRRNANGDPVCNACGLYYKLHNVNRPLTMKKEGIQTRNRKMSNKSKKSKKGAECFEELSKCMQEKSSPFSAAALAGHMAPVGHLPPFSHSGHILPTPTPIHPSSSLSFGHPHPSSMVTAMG
# Experimental: K7174 is a known GATA2 inhibitor. The IHH cells were transiently transfected with empty vector (for the NT) or human GATA2-expressing plasmid as well as pRL-TK (internal control) and GATA-Luc reporter plasmids. Cells were exposed to DMSO vehicle or compounds for 48 h. Experiments were in triplicate.
# T3 sequence (Q86WV6 whole entry H232R): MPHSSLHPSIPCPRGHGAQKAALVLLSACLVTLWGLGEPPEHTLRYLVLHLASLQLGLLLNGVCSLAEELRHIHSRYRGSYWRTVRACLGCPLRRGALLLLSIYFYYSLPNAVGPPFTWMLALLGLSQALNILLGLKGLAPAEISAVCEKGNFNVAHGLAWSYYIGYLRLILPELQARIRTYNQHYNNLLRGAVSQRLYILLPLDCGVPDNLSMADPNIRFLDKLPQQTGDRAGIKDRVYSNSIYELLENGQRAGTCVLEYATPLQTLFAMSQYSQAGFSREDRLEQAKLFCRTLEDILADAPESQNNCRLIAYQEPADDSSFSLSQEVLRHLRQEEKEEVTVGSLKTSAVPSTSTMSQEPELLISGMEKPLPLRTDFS
SMILES,ETV1 inhibition in ETV1-dependent reporter assay [1],activation of hSTING in ISRE-luc reporter assay [3],other results
Cc1[nH]c2ccccc2c1Cc1nc(-c2ccccc2)c(-c2ccccc2)o1 [Compound 637],ETV1 inhibitors,,
Cn1cc(Cc2nc(-c3ccccc3)c(-c3ccccc3)o2)c2ccccc21 [Compound 638],ETV1 inhibitors,,
COc1ccc2[nH]c(C)c(Cc3nc(-c4ccccc4)c(-c4ccccc4)o3)c2c1 [Compound 639],,,ERG inhibition in ERG-dependent reporter assay [2]: ERG inhibitors
FC(F)(F)c1ccc(-c2nc(Cc3c[nH]c4ccccc34)oc2-c2ccc(C(F)(F)F)cc2)cc1 [Compound 653],ETV1 inhibitors,activate hSTING,
Fc1ccccc1-c1nc(Cc2c[nH]c3ccccc23)oc1-c1ccccc1F [Compound 655],ETV1 inhibitors,,
C(=C\c1c[nH]c2ccccc12)/c1nc(-c2ccccc2)c(-c2ccccc2)o1 [Compound 657],ETV1 inhibitors,,
FC(F)(F)c1ccccc1-c1nc(Cc2c[nH]c3ccccc23)oc1-c1ccccc1C(F)(F)F [Compound 659],,,ERG inhibition in ERG-dependent reporter assay [2]: ERG inhibitors
COc1ccc(-c2nc(Cc3c[nH]c4ccccc34)oc2-c2ccc(OC)cc2)cc1 [Compound 660],,activate hSTING,
FC(F)(F)c1cc(CCc2nc(-c3ccccc3)c(-c3ccccc3)o2)cc(C(F)(F)F)c1 [Compound 689],,activate hSTING,
COc1ccc(-c2nc(Cc3c[nH]c4ccccc34)oc2-c2ccc(O)cc2)cc1 [Compound 697],ETV1 inhibitors,,ERG inhibition in ERG-dependent reporter assay [2]: ERG inhibitors
COc1ccc(-c2oc(Cc3c[nH]c4ccccc34)nc2-c2ccc(O)cc2)cc1 [Compound 699],,,ERG inhibition in ERG-dependent reporter assay [2]: ERG inhibitors
O=C1Nc2ccccc2C1Cc1nc(-c2ccccc2)c(-c2ccccc2)o1 (stereo not shown) [Compound 700],ETV1 inhibitors,,
O=C(/C=C(/C=C/c1cccc(C(F)(F)F)c1)c1ccccc1)N1CCC(O)(c2ccccc2)CC1 [Compound 872],,,GATA2 inhibition in GATA2-dependent reporter assay [4]: GATA2 inhibitors
O=C(C/C(=C\c1ccccc1)c1ccccc1)N1CCC(O)(c2ccccc2)CC1 [Compound 880],,,GATA2 inhibition in GATA2-dependent reporter assay [4]: GATA2 inhibitors
O=C(/C=C(/Cc1ccccc1)c1ccccc1)N1CCC(O)(c2ccccc2)CC1 [Compound 881],,,GATA2 inhibition in GATA2-dependent reporter assay [4]: GATA2 inhibitors
Cc1ccc(/C(=C\C(=O)N2CCC(O)(c3ccccc3)CC2)CCc2cccc(F)c2)cc1 [Compound 882],,,GATA2 inhibition in GATA2-dependent reporter assay [4]: GATA2 inhibitors
COc1ccc(/C(=C\C(=O)N2CCC(O)(c3ccccc3)CC2)CCc2ccccc2)cc1OC [Compound 883],,,GATA2 inhibition in GATA2-dependent reporter assay [4]: GATA2 inhibitors
FC(F)(F)c1ccc(-c2nc(CCc3c[nH]c4ccccc34)oc2-c2ccc(C(F)(F)F)cc2)cc1 [Compound 918],,activate hSTING,
c1coc(-c2nc(CCc3c[nH]c4ccccc34)oc2-c2ccco2)c1 [Compound 919],,activate hSTING,
FC(F)(F)c1ccccc1-c1nc(CCc2c[nH]c3ccccc23)oc1-c1ccccc1C(F)(F)F [Compound 920],,activate hSTING,
C(=N\c1oc(-c2ccccc2)nc1Sc1ccccc1)/c1ccccc1 [Compound V151],,,ERG inhibition in ERG-dependent reporter assay [2]: ERG inhibitors

# More lines, main results first:
ETV1 inhibition in ETV1-dependent reporter assay [1],activation of hSTING in ISRE-luc reporter assay [3],SMILES,other results
ETV1 inhibitors,,Fc1ccc2[nH]cc(Cc3nc(-c4ccccc4)c(-c4ccccc4)o3)c2c1 [Compound 636],
ETV1 inhibitors,activate hSTING,COc1cccc(-c2nc(CCc3c[nH]c4ccccc34)oc2-c2cccc(OC)c2)c1 [Compound 641],
ETV1 inhibitors,,Cc1cccc(-c2nc(Cc3c[nH]c4ccccc34)oc2-c2cccc(C)c2)c1 [Compound 651],ERG inhibition in ERG-dependent reporter assay [2]: ERG inhibitors
ETV1 inhibitors,,Fc1ccc(-c2nc(Cc3c[nH]c4ccccc34)oc2-c2ccc(F)cc2)cc1 [Compound 652],
ETV1 inhibitors,,Cc1ccc(-c2nc(Cc3c[nH]c4ccccc34)oc2-c2ccc(C)cc2)cc1 [Compound 654],
ETV1 inhibitors,activate hSTING,FC(F)(F)c1cccc(-c2nc(Cc3c[nH]c4ccccc34)oc2-c2cccc(C(F)(F)F)c2)c1 [Compound 656],
ETV1 inhibitors,,Clc1ccc(-c2nc(Cc3c[nH]c4ccccc34)oc2-c2ccc(Cl)cc2)cc1 [Compound 661],ERG inhibition in ERG-dependent reporter assay [2]: ERG inhibitors
ETV1 inhibitors,,Clc1ccccc1-c1nc(Cc2c[nH]c3ccccc23)oc1-c1ccccc1Cl [Compound 662],ERG inhibition in ERG-dependent reporter assay [2]: ERG inhibitors
,activate hSTING,Fc1ccc(-c2nc(CCCc3c[nH]c4ccccc34)oc2-c2ccc(F)cc2)cc1 [Compound 671],
,activate human STING (hSTING),FC(F)(F)c1ccccc1-c1nc(CCCc2c[nH]c3ccccc23)oc1-c1ccccc1C(F)(F)F [Compound 677],
,activate hSTING,Fc1ccccc1-c1nc(CCCc2c[nH]c3ccccc23)oc1-c1ccccc1F [Compound 678],ERG inhibition in ERG-dependent reporter assay [2]: ERG inhibitors
ETV1 inhibitors,,c1ccc(-c2nc(Cc3c[nH]c4ccccc34)oc2-c2ccccc2)cc1 [Compound 708],
,activate human STING (hSTING),Clc1cccc(-c2nc(CCCc3c[nH]c4ccccc34)oc2-c2cccc(Cl)c2)c1 [Compound 762],
ETV1 inhibitors,activate hSTING,COc1cccc(-c2oc(CCCc3c[nH]c4ccccc34)nc2-c2ccc[nH]2)c1 [Compound 830],GATA2 inhibition in GATA2-dependent reporter assay [4]: GATA2 inhibitors
,activate hSTING,c1coc(-c2nc(CCCc3c[nH]c4ccccc34)oc2-c2ccco2)c1 [Compound 831],GATA2 inhibition in GATA2-dependent reporter assay [4]: GATA2 inhibitors
ETV1 inhibitors,activate hSTING,Fc1cccc(-c2oc(Cc3c[nH]c4ccccc34)nc2-c2ccco2)c1 [Compound 838],GATA2 inhibition in GATA2-dependent reporter assay [4]: GATA2 inhibitors
,activate hSTING,COc1ccccc1-c1nc(CCCc2c[nH]c3ccccc23)oc1-c1ccccc1OC [Compound 916],
,activate hSTING,COc1ccccc1-c1nc(CCc2c[nH]c3ccccc23)oc1-c1ccccc1OC [Compound 917],

# Source: patent US10844051B2, “Substituted oxazoles for the treatment of cancer” (THE ROYAL INSTITUTION FOR THE ADCANCEMENT OF …, priority 2015, dated 2020)
